# Measured values taken from patent US20250099557A1, “ANTIBIOTIC PHARMACEUTICAL COMPOSITION CAPABLE OF SUBCUTANEOUS ADMINISTRATION” (SHANGHAI BAO PHARMACEUTICALS CO., LTD., priority 2021, published 2025).
# How the values were obtained:
# [1] = target: T1, HAase (Homo sapiens, UniProt P38567); assay: Compatibility study of HAase and antibiotic in solution: HAase activity; format: biochemical; conditions: 15 min room temperature; for Final concentration of HAase (units/ml) 150: HAase added to 150 units/ml; for Final concentration of HAase (units/ml) 500: HAase added to 500 units/ml; for Final concentration of HAase (units/ml) 6000: HAase added to 6000 units/ml; for Final concentration of HAase (units/ml) 2000: HAase added to 2000 units/ml; for interference with the activity of HAase: antibiotic and HAase in physiological saline
# T1 construct: made in house
# T1 sequence (P38567 36-482): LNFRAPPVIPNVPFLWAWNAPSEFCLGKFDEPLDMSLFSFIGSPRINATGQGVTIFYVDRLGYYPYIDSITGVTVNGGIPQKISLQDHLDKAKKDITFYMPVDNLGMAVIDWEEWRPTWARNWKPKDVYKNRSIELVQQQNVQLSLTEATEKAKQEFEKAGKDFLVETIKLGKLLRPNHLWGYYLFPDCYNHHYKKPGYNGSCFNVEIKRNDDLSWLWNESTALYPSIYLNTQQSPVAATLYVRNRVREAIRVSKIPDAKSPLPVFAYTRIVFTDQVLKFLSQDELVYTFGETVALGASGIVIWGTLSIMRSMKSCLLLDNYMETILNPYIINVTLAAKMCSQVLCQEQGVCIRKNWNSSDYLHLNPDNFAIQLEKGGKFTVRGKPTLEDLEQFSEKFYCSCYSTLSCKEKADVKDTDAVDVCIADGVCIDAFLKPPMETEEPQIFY
# [2] = tested on: intestinal flora; assay: Effects of administration routes on the diversity of intestinal flora in mice (16S rDNA sequencing, OTU); format: in vivo; conditions: C57BL/6 mice, feces
# Description: 12 SPF grade C57BL/6 mice were used for each antibiotic mode, and divided into two groups, each having 6 mice. The two groups include an oral administration group, and a subcutaneous administration group combined with recombinant human HAase. A blank control group including 6 mice was also set. The mice in the oral administration group were given the model antibiotic solution by oral gavage for five consecutive days. The mice in the subcutaneous administration group combined with recombinant human HAase were given the same dose of model antibiotic as that in the oral administration group by subcutaneous administration for five consecutive days. The feces of mice in each group were collected on the 1 st, 2nd, 3rd, 4th, 5th, 6th, 8th, 10th and 14th days after five consecutive days of administration, and stored at −80° C., for detecting the microbial diversity later. The fecal samples of each group were amplified and sequenced by 16S rDNA sequencing. After DNA extraction, PCR amplification and gene sequencing, the changes of intestinal bacterial diversity in each group of mice were analyzed. The relative species diversity of the test group was calculated, with the OUT value of the blank control group in each day as a reference, as shown in Table 33.
# [3] = antibiotic 30 mg/ml in physiological saline
# [4] = antibiotic 300 mg/ml in physiological saline
# [5] = in combination with recombinant human HAase for subcutaneous administration, five consecutive days, D1 after administration
# [6] = in combination with recombinant human HAase for subcutaneous administration, five consecutive days, D2
# [7] = in combination with recombinant human HAase for subcutaneous administration, five consecutive days, D3
# [8] = in combination with recombinant human HAase for subcutaneous administration, five consecutive days, D4
# [9] = in combination with recombinant human HAase for subcutaneous administration, five consecutive days, D5
# [10] = in combination with recombinant human HAase for subcutaneous administration, five consecutive days, D6
# [11] = in combination with recombinant human HAase for subcutaneous administration, five consecutive days, D8
# [12] = in combination with recombinant human HAase for subcutaneous administration, five consecutive days, D10
# [13] = in combination with recombinant human HAase for subcutaneous administration, five consecutive days, D14
# [14] = oral administration for five consecutive days, D1 after administration
# [15] = oral administration for five consecutive days, D2
# [16] = oral administration for five consecutive days, D3
# [17] = oral administration for five consecutive days, D4
# [18] = oral administration for five consecutive days, D5
# [19] = oral administration for five consecutive days, D6
# [20] = oral administration for five consecutive days, D8
# [21] = oral administration for five consecutive days, D10
# [22] = oral administration for five consecutive days, D14
# [23] = antibiotic 10 mg/ml in physiological saline
# [24] = antibiotic 70 mg/ml in physiological saline
compound,measurement,setting,value
C[C@@H](O)[C@H]1C(=O)N2C(C(=O)O)=C(S[C@@H]3CN[C@H](C(=O)Nc4cccc(C(=O)O)c4)C3)[C@H](C)[C@H]12 [Ertapenem],Final concentration of HAase (units/ml) 150,[1]; [3],152 units/ml
same,Final concentration of HAase (units/ml) 500,[1]; [3],501 units/ml
same,Final concentration of HAase (units/ml) 6000,[1]; [3],6121 units/ml
same,Final concentration of HAase (units/ml) 500,[1]; [4],511 units/ml
same,Final concentration of HAase (units/ml) 2000,[1]; [4],1974 units/ml
same,Final concentration of HAase (units/ml) 6000,[1]; [4],5990 units/ml
same,interference with the activity of HAase,[1],not interfere with the activity of HAase
same,Relative abundance of OUT (operational taxonomic units),[2]; [5],30.5%
same,Relative abundance of OUT (operational taxonomic units),[2]; [6],30.9%
same,Relative abundance of OUT (operational taxonomic units),[2]; [7],28.9%
same,Relative abundance of OUT (operational taxonomic units),[2]; [8],31.2%
same,Relative abundance of OUT (operational taxonomic units),[2]; [9],28.2%
same,Relative abundance of OUT (operational taxonomic units),[2]; [10],33.2%
same,Relative abundance of OUT (operational taxonomic units),[2]; [11],36.8%
same,Relative abundance of OUT (operational taxonomic units),[2]; [12],36.7%
same,Relative abundance of OUT (operational taxonomic units),[2]; [13],39.3%
same,Relative abundance of OUT (operational taxonomic units),[2]; [14],16.2%
same,Relative abundance of OUT (operational taxonomic units),[2]; [15],13.1%
same,Relative abundance of OUT (operational taxonomic units),[2]; [16],10.4%
same,Relative abundance of OUT (operational taxonomic units),[2]; [17],14.6%
same,Relative abundance of OUT (operational taxonomic units),[2]; [18],16.0%
same,Relative abundance of OUT (operational taxonomic units),[2]; [19],15.3%
same,Relative abundance of OUT (operational taxonomic units),[2]; [20],15.8%
same,Relative abundance of OUT (operational taxonomic units),[2]; [21],20.9%
same,Relative abundance of OUT (operational taxonomic units),[2]; [22],24.1%
Teicoplanin,Final concentration of HAase (units/ml) 150,[1]; [23],160 units/ml
same,Final concentration of HAase (units/ml) 500,[1]; [23],488 units/ml
same,Final concentration of HAase (units/ml) 2000,[1]; [23],1972 units/ml
same,Final concentration of HAase (units/ml) 6000,[1]; [23],6033 units/ml
same,Final concentration of HAase (units/ml) 150,[1]; [24],152 units/ml
same,Final concentration of HAase (units/ml) 500,[1]; [24],498 units/ml
same,Final concentration of HAase (units/ml) 2000,[1]; [24],1961 units/ml
same,Final concentration of HAase (units/ml) 6000,[1]; [24],5979 units/ml
same,interference with the activity of HAase,[1],does not interfere with the activity of HAase
same,Relative abundance of OUT (operational taxonomic units),[2]; [5],51.8%
same,Relative abundance of OUT (operational taxonomic units),[2]; [6],56.0%
same,Relative abundance of OUT (operational taxonomic units),[2]; [7],53.7%
same,Relative abundance of OUT (operational taxonomic units),[2]; [8],56.3%
same,Relative abundance of OUT (operational taxonomic units),[2]; [9],51.2%
same,Relative abundance of OUT (operational taxonomic units),[2]; [10],55.4%
same,Relative abundance of OUT (operational taxonomic units),[2]; [11],63.7%
same,Relative abundance of OUT (operational taxonomic units),[2]; [12],64.8%
same,Relative abundance of OUT (operational taxonomic units),[2]; [13],71.7%
same,Relative abundance of OUT (operational taxonomic units),[2]; [14],44.7%
same,Relative abundance of OUT (operational taxonomic units),[2]; [15],41.9%
same,Relative abundance of OUT (operational taxonomic units),[2]; [16],39.8%
same,Relative abundance of OUT (operational taxonomic units),[2]; [17],41.2%
same,Relative abundance of OUT (operational taxonomic units),[2]; [18],39.4%
same,Relative abundance of OUT (operational taxonomic units),[2]; [19],41.1%
same,Relative abundance of OUT (operational taxonomic units),[2]; [20],46.3%
same,Relative abundance of OUT (operational taxonomic units),[2]; [21],45.9%
same,Relative abundance of OUT (operational taxonomic units),[2]; [22],49.7%
